± gives the expanded uncertainty stated by the source.
Assay: xn = mol fraction of the nth substance listed
Conditions: 101 kPa, Liquid; for speed of sound: Frequency=2 MHz, Linear variable-path acoustic interferometer; for mass density: Pycnometric method

CCCCCCCCO [octan-1-ol] + Cc1ccccc1
Conditions | mass density, 303.15 K [kg/m3] | mass density, 313.15 K [kg/m3] | speed of sound, 303.15 K [m/s] | speed of sound, 313.15 K [m/s] | viscosity, 303.15 K [mPa·s] | viscosity, 313.15 K [mPa·s]
x2 = 0 | 818.38 ± 0.29 | 811.05 ± 0.3 | 1334 ± 3 | 1304 ± 3 | 6.433 ± 0.26 | 4.603 ± 0.2
x2 = 0.0495 | 819.62 ± 0.29 | 812.14 ± 0.3 | 1329 ± 3 | 1300 ± 3 | 5.63 ± 0.24 | 4.13 ± 0.18
x2 = 0.1104 | 821.19 ± 0.29 | 813.56 ± 0.31 | 1325 ± 3 | 1293 ± 3 | 4.775 ± 0.21 | 3.645 ± 0.16
x2 = 0.1513 | 822.25 ± 0.29 | 814.55 ± 0.31 | 1321 ± 3 | 1287 ± 3 | 4.281 ± 0.19 | 3.261 ± 0.15
x2 = 0.1999 | 823.55 ± 0.3 | 815.73 ± 0.31 | 1316 ± 3 | 1282 ± 3 | 3.788 ± 0.17 | 2.832 ± 0.13
x2 = 0.2517 | 824.98 ± 0.3 | 817.04 ± 0.31 | 1310 ± 3 | 1274 ± 3 | 3.28 ± 0.15 | 2.545 ± 0.12
x2 = 0.2997 | 826.34 ± 0.3 | 818.29 ± 0.31 | 1304 ± 3 | 1268 ± 2 | 2.952 ± 0.13 | 2.218 ± 0.1
x2 = 0.356 | 828.02 ± 0.3 | 819.85 ± 0.31 | 1297 ± 3 | 1262 ± 2 | 2.504 ± 0.11 | 1.944 ± 0.09
x2 = 0.3998 | 829.32 ± 0.3 | 821.03 ± 0.31 | 1291 ± 3 | 1255 ± 2 | 2.229 ± 0.1 | 1.715 ± 0.081
x2 = 0.4506 | 830.99 ± 0.3 | 822.56 ± 0.31 | 1286 ± 3 | 1250 ± 2 | 1.974 ± 0.091 | 1.518 ± 0.072
x2 = 0.5001 | 832.63 ± 0.3 | 824.08 ± 0.31 | 1281 ± 3 | 1242 ± 2 | 1.758 ± 0.082 | 1.37 ± 0.066
x2 = 0.5513 | 834.46 ± 0.3 | 825.77 ± 0.31 | 1276 ± 3 | 1238 ± 2 | 1.541 ± 0.073 | 1.175 ± 0.057
x2 = 0.6014 | 836.31 ± 0.3 | 827.51 ± 0.31 | 1272 ± 3 | 1234 ± 2 | 1.35 ± 0.065 | 1.084 ± 0.053
x2 = 0.6495 | 838.22 ± 0.3 | 829.3 ± 0.31 | 1270 ± 3 | 1231 ± 2 | 1.214 ± 0.059 | 0.935 ± 0.047
x2 = 0.6997 | 840.36 ± 0.3 | 831.29 ± 0.31 | 1268 ± 3 | 1228 ± 2 | 1.065 ± 0.052 | 0.866 ± 0.044
x2 = 0.7569 | 842.9 ± 0.3 | 833.69 ± 0.31 | 1267 ± 3 | 1228 ± 2 | 0.931 ± 0.047 | 0.754 ± 0.039
x2 = 0.8012 | 845.02 ± 0.3 | 835.74 ± 0.31 | 1268 ± 3 | 1229 ± 2 | 0.819 ± 0.042 | 0.703 ± 0.037
x2 = 0.8527 | 847.7 ± 0.3 | 838.28 ± 0.31 | 1269 ± 3 | 1232 ± 2 | 0.733 ± 0.038 | 0.636 ± 0.034
x2 = 0.9 | 850.32 ± 0.31 | 840.85 ± 0.32 | 1273 ± 3 | 1236 ± 2 | 0.646 ± 0.034 | 0.558 ± 0.03
x2 = 0.954 | 853.6 ± 0.31 | 844 ± 0.32 | 1280 ± 3 | 1245 ± 2 | 0.576 ± 0.031 | 0.526 ± 0.029

CCCCCCCO [heptan-1-ol] + Cc1ccccc1
Conditions | mass density, 303.15 K [kg/m3] | mass density, 313.15 K [kg/m3] | speed of sound, 303.15 K [m/s] | speed of sound, 313.15 K [m/s] | viscosity, 303.15 K [mPa·s] | viscosity, 313.15 K [mPa·s]
x2 = 0 | 814.89 ± 0.29 | 807.68 ± 0.3 | 1313 ± 3 | 1279 ± 3 | 5.048 ± 0.22 | 3.712 ± 0.17
x2 = 0.0525 | 816.52 ± 0.29 | 809.17 ± 0.3 | 1310 ± 3 | 1274 ± 3 | 4.404 ± 0.19 | 3.362 ± 0.15
x2 = 0.1014 | 818.06 ± 0.29 | 810.59 ± 0.3 | 1307 ± 3 | 1271 ± 3 | 3.859 ± 0.17 | 3.074 ± 0.14
x2 = 0.1518 | 819.67 ± 0.29 | 812.07 ± 0.3 | 1304 ± 3 | 1267 ± 3 | 3.4 ± 0.15 | 2.77 ± 0.12
x2 = 0.1859 | 820.78 ± 0.29 | 813.13 ± 0.31 | 1301 ± 3 | 1263 ± 2 | 3.154 ± 0.14 | 2.55 ± 0.12
x2 = 0.2489 | 822.84 ± 0.3 | 815.02 ± 0.31 | 1296 ± 3 | 1258 ± 3 | 2.645 ± 0.12 | 2.226 ± 0.1
x2 = 0.3011 | 824.61 ± 0.3 | 816.69 ± 0.31 | 1291 ± 3 | 1251 ± 2 | 2.314 ± 0.11 | 1.986 ± 0.092
x2 = 0.3504 | 826.34 ± 0.3 | 818.24 ± 0.31 | 1286 ± 3 | 1247 ± 2 | 2.042 ± 0.094 | 1.77 ± 0.082
x2 = 0.4006 | 828.07 ± 0.3 | 819.87 ± 0.31 | 1282 ± 3 | 1242 ± 2 | 1.796 ± 0.084 | 1.583 ± 0.074
x2 = 0.4494 | 829.88 ± 0.3 | 821.57 ± 0.31 | 1278 ± 3 | 1237 ± 2 | 1.594 ± 0.075 | 1.436 ± 0.068
x2 = 0.5003 | 831.83 ± 0.3 | 823.35 ± 0.31 | 1274 ± 3 | 1233 ± 2 | 1.399 ± 0.067 | 1.271 ± 0.061
x2 = 0.5486 | 833.72 ± 0.3 | 825.14 ± 0.31 | 1271 ± 3 | 1230 ± 2 | 1.25 ± 0.06 | 1.144 ± 0.056
x2 = 0.5903 | 835.44 ± 0.3 | 826.72 ± 0.31 | 1269 ± 3 | 1227 ± 2 | 1.113 ± 0.054 | 1.069 ± 0.052
x2 = 0.6493 | 837.95 ± 0.3 | 829.09 ± 0.31 | 1266 ± 3 | 1226 ± 2 | 0.982 ± 0.049 | 0.965 ± 0.048
x2 = 0.7011 | 840.28 ± 0.3 | 831.32 ± 0.31 | 1266 ± 3 | 1225 ± 2 | 0.888 ± 0.045 | 0.84 ± 0.043
x2 = 0.752 | 842.69 ± 0.3 | 833.57 ± 0.31 | 1267 ± 3 | 1226 ± 2 | 0.776 ± 0.04 | 0.772 ± 0.04
x2 = 0.8041 | 845.27 ± 0.3 | 836.02 ± 0.31 | 1268 ± 3 | 1228 ± 2 | 0.673 ± 0.035 | 0.682 ± 0.036
x2 = 0.8495 | 847.69 ± 0.3 | 838.32 ± 0.31 | 1272 ± 3 | 1232 ± 2 | 0.635 ± 0.034 | 0.639 ± 0.034
x2 = 0.9009 | 850.55 ± 0.31 | 841.07 ± 0.32 | 1276 ± 3 | 1239 ± 2 | 0.588 ± 0.032 | 0.573 ± 0.031
x2 = 0.9487 | 853.39 ± 0.31 | 843.85 ± 0.32 | 1282 ± 3 | 1245 ± 2 | 0.546 ± 0.03 | 0.528 ± 0.029

CCCCCCCCCCO [decan-1-ol] + Cc1ccccc1
Conditions | mass density, 303.15 K [kg/m3] | mass density, 313.15 K [kg/m3] | speed of sound, 303.15 K [m/s] | speed of sound, 313.15 K [m/s] | viscosity, 303.15 K [mPa·s] | viscosity, 313.15 K [mPa·s]
x2 = 0 | 822.87 ± 0.29 | 815.97 ± 0.31 | 1366 ± 3 | 1334 ± 3 | 9.716 ± 0.37 | 6.82 ± 0.28
x2 = 0.0507 | 823.76 ± 0.3 | 816.74 ± 0.31 | 1361 ± 3 | 1327 ± 3 | 8.474 ± 0.33 | 6.06 ± 0.26
x2 = 0.1015 | 824.73 ± 0.3 | 817.58 ± 0.31 | 1355 ± 3 | 1320 ± 3 | 7.424 ± 0.3 | 5.343 ± 0.23
x2 = 0.1473 | 825.62 ± 0.3 | 818.34 ± 0.31 | 1349 ± 3 | 1314 ± 3 | 6.635 ± 0.27 | 4.771 ± 0.21
x2 = 0.2091 | 826.88 ± 0.3 | 819.45 ± 0.31 | 1340 ± 3 | 1305 ± 3 | 5.658 ± 0.24 | 4.059 ± 0.18
x2 = 0.2577 | 827.9 ± 0.3 | 820.38 ± 0.31 | 1333 ± 3 | 1297 ± 3 | 4.962 ± 0.22 | 3.552 ± 0.16
x2 = 0.3006 | 828.84 ± 0.3 | 821.2 ± 0.3 | 1327 ± 3 | 1292 ± 3 | 4.458 ± 0.2 | 3.112 ± 0.14
x2 = 0.3496 | 829.95 ± 0.3 | 822.24 ± 0.31 | 1318 ± 3 | 1283 ± 3 | 3.848 ± 0.17 | 2.71 ± 0.12
x2 = 0.4028 | 831.22 ± 0.3 | 823.38 ± 0.31 | 1311 ± 3 | 1275 ± 3 | 3.32 ± 0.15 | 2.263 ± 0.11
x2 = 0.4516 | 832.48 ± 0.3 | 824.49 ± 0.31 | 1303 ± 3 | 1268 ± 2 | 2.843 ± 0.13 | 1.903 ± 0.09
x2 = 0.4989 | 833.77 ± 0.3 | 825.69 ± 0.31 | 1295 ± 3 | 1261 ± 2 | 2.499 ± 0.11 | 1.678 ± 0.08
x2 = 0.5497 | 835.29 ± 0.3 | 827.06 ± 0.31 | 1290 ± 3 | 1255 ± 2 | 2.152 ± 0.1 | 1.47 ± 0.071
x2 = 0.6009 | 836.92 ± 0.3 | 828.57 ± 0.31 | 1285 ± 3 | 1249 ± 2 | 1.883 ± 0.088 | 1.305 ± 0.064
x2 = 0.6498 | 838.61 ± 0.3 | 830.11 ± 0.31 | 1280 ± 3 | 1245 ± 2 | 1.594 ± 0.075 | 1.162 ± 0.057
x2 = 0.7065 | 840.8 ± 0.3 | 832.12 ± 0.31 | 1275 ± 3 | 1240 ± 2 | 1.414 ± 0.068 | 0.994 ± 0.05
x2 = 0.7524 | 842.7 ± 0.3 | 833.86 ± 0.31 | 1274 ± 2 | 1239 ± 2 | 1.15 ± 0.056 | 0.905 ± 0.046
x2 = 0.8069 | 845.15 ± 0.3 | 836.21 ± 0.31 | 1273 ± 2 | 1239 ± 2 | 1.021 ± 0.05 | 0.79 ± 0.041
x2 = 0.8472 | 847.18 ± 0.3 | 838.04 ± 0.31 | 1274 ± 2 | 1240 ± 2 | 0.887 ± 0.045 | 0.732 ± 0.038
x2 = 0.9063 | 850.54 ± 0.31 | 841.18 ± 0.32 | 1278 ± 3 | 1243 ± 2 | 0.75 ± 0.039 | 0.64 ± 0.034
x2 = 0.9489 | 853.12 ± 0.31 | 843.58 ± 0.32 | 1282 ± 3 | 1248 ± 2 | 0.599 ± 0.032 | 0.565 ± 0.031

Source: the NIST ThermoML archive (doi:10.1021/je0602519)
